Measurements: patent publication US20220380801A1, “TRIPARTITE SYSTEMS FOR PROTEIN DIMERIZATION AND METHODS OF USE” (priority 2019, published 2022)

System: mutant HCV PR: simeprevir: PRSIM_23 complex
Test: HTRF disruption of pre-formed mutant complexes
Type: binding, Hepatitis C virus subtype 1a
Details: mutation at position 136
Method: Methods of determining whether the competing small molecule is capable of binding to the target protein in the T-SM complex and displacing the small molecule from the T-SM complex include assays where a pre-formed tripartiate complex is generated and the ability of the binding member to bind the T-SM complex is measured (e.g. by a homogeneous time-resolved florescence (HTFR) binding assay) as increasing concentrations of the competing small molecule are added. A competing small molecule may be capable to displaying the small molecule from the T-SM complex if it is capable of inhibiting binding of inhibiting the binding member from binding the T-SM complex by at least 50%, by at least 75%, by at least 80%, by at least 85%, by at least 90%, or by at least 95% when measured using the HTFR binding assay. In some embodiments, the competing small molecule is asunaprevir, paritaprevir, vaniprevir, grazoprevir, danoprevir or glecaprevir. The binding member, target protein and small molecule using in the method may be as further defined herein in relation to other aspects of the disclosure.
To further characterise the mutations made to the HCV NS3/4A PR, we investigated whether the small molecules were able to disrupt pre-formed mutant HCV PR: simeprevir: PRSIM_23 complexes. […] The degree of inhibition is dependent on the specific mutation made.

SMILES	inhibition of pre-formed mutant complex
CC[C@@H]1C[C@]1(NC(=O)[C@@H]1C[C@@H]2CN1C(=O)[C@H](C(C)(C)C)NC(=O)OCC(C)(C)CCCCc1cccc3c1CN(C3)C(=O)O2)C(=O)NS(=O)(=O)C1CC1 [vaniprevir]	more pronounced inhibition
C=C[C@@H]1C[C@]1(NC(=O)[C@@H]1C[C@@H]2CN1C(=O)[C@H](C(C)(C)C)NC(=O)O[C@@H]1C[C@H]1CCCCCc1nc3ccc(OC)cc3nc1O2)C(=O)NS(=O)(=O)C1CC1.O [grazoprevir]	more pronounced inhibition
C=C[C@@H]1C[C@]1(NC(=O)[C@@H]1C[C@@H](Oc2ncc(OC)c3ccc(Cl)cc23)CN1C(=O)[C@@H](NC(=O)OC(C)(C)C)C(C)(C)C)C(=O)NS(=O)(=O)C1CC1 [asunaprevir]	more pronounced inhibition
CC(C)(C)OC(=O)N[C@H]1CCCCC/C=C\[C@@H]2C[C@@]2(C(=O)NS(=O)(=O)C2CC2)NC(=O)[C@@H]2C[C@@H](OC(=O)N3Cc4cccc(F)c4C3)CN2C1=O [danoprevir]	more pronounced inhibition
CC(C)(C)[C@@H]1NC(=O)O[C@@H]2CCC[C@H]2OC/C=C/C(F)(F)c2nc3ccccc3nc2O[C@@H]2C[C@@H](C(=O)N[C@]3(C(=O)NS(=O)(=O)C4(C)CC4)C[C@H]3C(F)F)N(C2)C1=O [glecaprevir]	more pronounced inhibition
Cc1cnc(C(=O)N[C@H]2CCCCC/C=C\[C@@H]3C[C@@]3(C(=O)NS(=O)(=O)C3CC3)NC(=O)[C@@H]3C[C@@H](Oc4nc5ccccc5c5ccccc45)CN3C2=O)cn1 [paritaprevir]	more pronounced inhibition
